Results taken from ChEMBL document CHEMBL4725457, “Novel Bicyclic Heteroaryl Compounds as γ-Secretase Modulators for Treating Alzheimer's Disease” (ACS Med Chem Lett, 2020).

Molecular target: Gamma-secretase
Test: Inhibition of human gamma secretase assessed as reduction in Abeta42 production
Assay type: protein-complex assay

Row | IC50 [nM] | Compound
1 | 6.6 | Cc1cc(N2C[C@H]3CC[C@@H](C2)[C@@H]3Nc2nc3n(n2)CCC[C@H]3Oc2cc(Cl)cc(Cl)c2)ncn1
2 | 10.3 | Cc1cc(N2C[C@H]3CC[C@@H](C2)[C@@H]3Nc2nc3n(n2)CCC[C@H]3Oc2ccc(Cl)cc2)ncn1
3 | 9.9 | Cc1cc(N2C[C@H]3CC[C@@H](C2)[C@@H]3Nc2nc3n(n2)CCC[C@H]3Oc2cccc(Cl)c2)ncn1
4 | 8.1 | COc1cc(N2C[C@H]3CC[C@@H](C2)[C@@H]3Nc2nc3n(n2)CC[C@H]3Oc2cc(F)cc(Cl)c2)cnn1
5 | 8.1 | Cc1cc(N2C[C@H]3CC[C@@H](C2)[C@@H]3Nc2nc3n(n2)CCC[C@H]3Oc2cc(F)cc(Cl)c2)ncn1
6 | 6.3 | COc1cc(N2C[C@H]3CC[C@@H](C2)[C@@H]3Nc2nc3n(n2)CCC[C@H]3Oc2cc(F)cc(Cl)c2)cnn1
